Data reported in PubChem BioAssay (NCI).
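Five compound concentrations were applied to cells in 96-well plates for 48 hours; endpoints were derived by simple linear interpolation of the resulting dose-response curve. GI50 is the concentration that inhibits growth by half. TGI marks complete inhibition of growth.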

Assays:
Assay in all cases: NCI anticancer screen, dose series, 48 h
OVCAR-8 ovarian = test system: OVCAR-8 ovarian
UACC-257 melanoma = test system: UACC-257 melanoma
EKVX NSCLC = test system: EKVX NSCLC
OVCAR-5 ovarian = test system: OVCAR-5 ovarian
SF-295 CNS = test system: SF-295 CNS
SK-OV-3 ovarian = test system: SK-OV-3 ovarian
SK-MEL-2 melanoma = test system: SK-MEL-2 melanoma
NCI-H522 lung = test system: NCI-H522 lung
KM12 colon = test system: KM12 colon
BT-549 breast = test system: BT-549 breast

Compound | GI50 (OVCAR-8 ovarian) [nM] | TGI (OVCAR-8 ovarian) [µM] | GI50 (UACC-257 melanoma) [nM] | TGI (UACC-257 melanoma) [µM] | GI50 (EKVX NSCLC) [nM] | TGI (EKVX NSCLC) [µM] | GI50 (OVCAR-5 ovarian) [nM] | TGI (OVCAR-5 ovarian) [µM] | GI50 (SF-295 CNS) [nM] | TGI (SF-295 CNS) [µM] | GI50 (SK-OV-3 ovarian) [nM] | TGI (SK-OV-3 ovarian) [µM] | GI50 (SK-MEL-2 melanoma) [nM] | TGI (SK-MEL-2 melanoma) [µM] | GI50 (NCI-H522 lung) [nM] | TGI (NCI-H522 lung) [µM] | GI50 (KM12 colon) [nM] | TGI (KM12 colon) [µM] | GI50 (BT-549 breast) [nM] | TGI (BT-549 breast) [µM]
Cc1ccc(NCCNCC(C)(C)O)c2c(=O)c3ccc(Cl)cc3sc12 | 1770 | 3.32 | 1930 | 3.44 | 1380 | 2.87 | 1470 | 2.95 | 1660 | 3.11 | 1460 | 2.98 | 1590 | 3.28 | 1820 | 3.59 | 1630 | 3.13 | – | –
COC(=O)C1=NC(=S)NC(c2ccccc2)C1c1nc2ccccc2o1 (stereo unspecified) | – | > 50 | – | > 50 | – | > 50 | – | > 50 | – | > 50 | – | > 50 | – | > 50 | – | > 50 | – | > 50 | – | –
Cc1cc(NCCCCCCCNc2cc(C)nc3cc(N)ccc23)c2ccc(N)cc2n1 | – | > 100 | – | > 100 | – | > 100 | – | > 100 | – | > 100 | – | > 100 | – | > 100 | – | 81.5 | – | 45.1 | – | –
CC(C)c1ccc(O)c(Cc2cc(C(C)C)cc(Cc3cc(C(C)C)ccc3O)c2O)c1 | – | 4.18 | – | 3.41 | – | 8.95 | – | 3.13 | – | 3.3 | – | 3.05 | – | 3.06 | – | 2.92 | – | 3.74 | – | –
O=C1C(Cl)=C(Nc2ccc(S(=O)(=O)c3ccc(NC4=C(Cl)C(=O)c5ccccc5C4=O)cc3)cc2)C(=O)c2ccccc21 | – | – | 1920 | 3.48 | 2360 | 9.07 | 1920 | 3.81 | 3270 | 11.8 | 2400 | 7.94 | – | – | – | – | 2170 | 5.38 | 1650 | 3.24
COC(=O)Cc1cc(=O)n2c3ccccc3n(C)c2c1C#N | – | > 100 | – | > 100 | – | > 100 | – | > 100 | – | > 100 | – | > 100 | – | > 100 | – | – | – | > 100 | – | –
CCn1cc(C(=O)O)c(=O)c2cc(F)c(N3CCN(S(=O)(=O)c4ccc(Cl)cc4Cl)CC3)cc21 | 3300 | 29 | 2650 | 7.93 | – | – | 3430 | > 100 | – | – | 3000 | 8.94 | 2750 | 5.8 | 1810 | 3.73 | 3420 | > 100 | 2640 | 7.89
CC(=O)CCC1(c2ccccc2)OC(=O)C(C#N)=C1c1ccccc1 (stereo unspecified) | – | > 100 | – | > 100 | – | > 100 | – | > 100 | – | > 100 | – | > 100 | – | > 100 | – | 4.53 | – | > 100 | – | –
O=C(Nc1ccn(C2CC(O)C(COC(c3ccccc3)(c3ccccc3)c3ccccc3)O2)c(=O)n1)c1ccccc1 (stereo unspecified) | – | 3.71 | – | 28.3 | – | 16.2 | – | 3.53 | – | 3.55 | – | 28.3 | – | 7.25 | – | 13.4 | – | 17.9 | – | –
